Data: paper PMC9939733 (The Journal of Biological Chemistry, 2023)
Substitutions are numbered along the chain they refer to. pIC50: −log10 of the molar value. Where two headings read alike, the source gives them in different places.

Key:
R132H IDH1 [1] = molecular target: T1, R132H IDH1 (Homo sapiens, UniProt O75874, R132H); assay: Absorbance assay, IC50 determination; format: biochemical; set-up: made in house; host or cells: Escherichia coli BL21(DE3) pLyS
Description: (§1) The reactivity of WT IDH1/2 and oncogenic IDH1/2 variants was assayed at ambient temperature by continuously monitoring the concentration-dependent change in absorbance ([…]) of NADPH using a PheraStar FS or a CLARIOstar Plus plate reader (BMG Labtech). Enzyme reactions (60 μL total reaction volume) were performed in clear 384-well UV-STAR plates (Greiner Bio-one, #781801). Compounds were dispensed using a CyBio SDW-CW CyBi-Well Simultaneous Pipettor and assay started using a ThermoFisher Multidrop Combi reagent dispenser.
(§2) Final assay concentrations were as follows: 30 nM IDH1/2 variant and 50 μM NADPH. […] Reactions were performed as technical quadruplicates, and all assays were carried out in two independent duplicates. GraphPad Prism (version 5.04) was used for data analysis and to determine the IC50 values.

R172K IDH2 [2] = molecular target: T2, R172K IDH2 (Homo sapiens, UniProt P48735, R172K); assay: Absorbance assay, IC50 determination; format: biochemical
T2 construct: made in house; host or cells: Sf21 insect cells (cell pellets prepared at Evotec)
T2 sequence (P48735 40-452 R172K): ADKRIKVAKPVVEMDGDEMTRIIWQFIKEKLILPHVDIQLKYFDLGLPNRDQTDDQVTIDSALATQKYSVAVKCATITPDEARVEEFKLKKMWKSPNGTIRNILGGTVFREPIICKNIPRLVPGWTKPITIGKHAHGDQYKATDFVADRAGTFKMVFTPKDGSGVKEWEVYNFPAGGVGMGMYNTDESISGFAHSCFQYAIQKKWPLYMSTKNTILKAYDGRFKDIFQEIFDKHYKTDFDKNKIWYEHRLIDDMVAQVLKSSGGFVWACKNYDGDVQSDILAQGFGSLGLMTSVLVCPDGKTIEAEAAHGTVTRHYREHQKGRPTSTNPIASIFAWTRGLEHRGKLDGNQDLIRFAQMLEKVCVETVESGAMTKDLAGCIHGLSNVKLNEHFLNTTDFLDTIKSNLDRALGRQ
Description: as §1, §2

R140Q IDH2 [3] = molecular target: T3, R140Q IDH2 (Homo sapiens, UniProt P48735, R140Q); assay: Absorbance assay, IC50 determination; format: biochemical
T3 construct: made in house; host or cells: Sf21 insect cells (cell pellets prepared at Evotec)
T3 sequence (P48735 40-452 R140Q): T2 sequence (P48735 40-452 R172K) with R101Q, K133R
Description: as §1, §2

R132H IDH1 [4] = molecular target: T1, R132H IDH1; assay: Absorbance assay (NADPH consumption), substrate turnover in the absence of 2OG; format: biochemical; set-up: made in house; host or cells: Escherichia coli BL21(DE3) pLyS; details: no 2OG; […] test compound, 0.03 μM R132H IDH1, 50 μM NADPH; 2OG = 100
In short: (§3)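 Tech. quadruplicates; cpds pipetted simultaneously, reaction initiated by dispenser addition.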

R172K IDH2 [5] = molecular target: T2, R172K IDH2; assay: as above; format: biochemical; details: no 2OG; 1.0 mM test compound, 0.03 μM R172K IDH2, 50 μM NADPH; 2OG = 100
In short: as §3

R140Q IDH2 [6] = molecular target: T3, R140Q IDH2; assay: as above; format: biochemical; details: no 2OG; 6.0 mM test compound, 0.03 μM R140Q IDH2, 50 μM NADPH; 2OG = 100
In short: as §3

R172K IDH2 [7] = molecular target: T2, R172K IDH2; assay: Absorbance assay, variant activity in the presence of equimolar 2OG (inhibition screen); format: biochemical; details: for activity [%] (%-substrate conversion after 20 min incubation): 1.0 mM 2OG and 1.0 mM test compound, 0.03 μM R172K IDH2, 50 μM NADPH
In short: as §3

R140Q IDH2 [8] = molecular target: T3, R140Q IDH2; assay: as above; format: biochemical; details: for activity [%] (%-substrate conversion after 20 min incubation): 6.0 mM 2OG and 6.0 mM test compound, 0.03 μM R140Q IDH2, 50 μM NADPH
In short: as §3

WT IDH1 [9] = molecular target: T4, WT IDH1 (Homo sapiens, UniProt O75874); assay: Absorbance assay, WT activity in the presence of equimolar DL-isocitrate (inhibition); format: biochemical; details: […] isocitrate and […] test compound, 75 μM NADP+, 2.0 nM WT IDH1
T4 construct: made in house; host or cells: Escherichia coli BL21(DE3) pLyS
T4 sequence (O75874 whole entry): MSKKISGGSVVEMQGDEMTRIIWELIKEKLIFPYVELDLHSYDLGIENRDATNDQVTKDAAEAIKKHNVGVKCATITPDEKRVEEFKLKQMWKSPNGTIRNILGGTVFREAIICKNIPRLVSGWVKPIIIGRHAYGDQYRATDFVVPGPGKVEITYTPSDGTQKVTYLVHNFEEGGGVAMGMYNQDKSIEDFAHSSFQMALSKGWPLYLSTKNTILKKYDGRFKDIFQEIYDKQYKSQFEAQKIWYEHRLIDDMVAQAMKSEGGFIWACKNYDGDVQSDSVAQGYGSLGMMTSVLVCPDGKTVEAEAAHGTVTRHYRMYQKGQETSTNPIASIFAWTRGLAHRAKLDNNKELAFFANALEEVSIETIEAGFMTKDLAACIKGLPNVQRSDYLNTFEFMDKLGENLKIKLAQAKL
In short: as §3

WT IDH2 [10] = molecular target: T5, WT IDH2 (Homo sapiens, UniProt P48735); assay: as above; format: biochemical; details: […] isocitrate and […] test compound, 75 μM NADP+, 2.0 nM WT IDH2
T5 construct: made in house; host or cells: Sf21 insect cells (cell pellets prepared at Evotec)
T5 sequence (P48735 40-452): T2 sequence (P48735 40-452 R172K) with K133R
In short: as §3

R132H IDH1 [11] = molecular target: T1, R132H IDH1; assay: Absorbance assay, variant activity in the presence of equimolar 2OG (inhibition screen); format: biochemical; set-up: made in house; host or cells: Escherichia coli BL21(DE3) pLyS; details: […] 2OG and […] test compound, 0.03 μM R132H IDH1, 50 μM NADPH
In short: as §3

WT IDH1 [12] = molecular target: T4, WT IDH1; assay: Absorbance assay, substrate activity in the absence of DL-isocitrate; format: biochemical; details: no DL-isocitrate; […] test compound, 75 μM NADP+, 2.0 nM WT IDH1; compared to DL-isocitrate
In short: as §3

WT IDH2 [13] = molecular target: T5, WT IDH2; assay: as above; format: biochemical; details: no DL-isocitrate; […] test compound, 75 μM NADP+, 2.0 nM WT IDH2; compared to DL-isocitrate
In short: as §3

FIH = details: ref [22], [23]; cited from earlier work
AspH = details: ref [22], [23]; cited from earlier work
[14] = tested on: glutamic oxaloacetic aminotransferase; set-up: method as in earlier work; details: ref [66]; cited from earlier work

T1 sequence (O75874 whole entry R132H): as the sequence (O75874 whole entry) above, with R132H counted along it

| Compound | activity [%] (%-substrate conversion after 20 min incubation) (R172K IDH2 [7]) | activity [%] (%-substrate conversion after 20 min incubation) (R140Q IDH2 [8]) | activity [%] (%-substrate conversion after 20 min incubation) (WT IDH1 [9]) | activity [%] (%-substrate conversion after 20 min incubation) (WT IDH2 [10]) | activity [%] (%-substrate conversion after 20 min incubation) (R132H IDH1 [11]) | activity [%] (%-substrate conversion after 20 min incubation) (WT IDH1 [12]) | activity [%] (%-substrate conversion after 20 min incubation) (WT IDH2 [13]) | inhibition of FIH (FIH) | also measured |
| --- | --- | --- | --- | --- | --- | --- | --- | --- | --- |
| O=C(O)CNC(=O)C(=O)O [NOG, N-oxalylglycine, reference compound] | 13 ± 4% | 12 ± 7% | 93 ± 2% | 93 ± 1% | < 10% |  |  |  | pIC50 (R132H IDH1 [1]): ~3.73; pIC50 (R172K IDH2 [2]): ~3.79; pIC50 (R140Q IDH2 [3]): ~3.21; activity [%] (%-substrate conversion after 20 min incubation) (R132H IDH1 [4]): < 10%; activity [%] (%-substrate conversion after 20 min incubation) (R172K IDH2 [5]): < 10%; activity [%] (%-substrate conversion after 20 min incubation) (R140Q IDH2 [6]): < 10%; inhibition (R172K IDH2 [7]; equimolar 2OG (1.0 mM)): ≥ 90%; inhibition (R140Q IDH2 [8]; equimolar 2OG (6.0 mM)): ≥ 90% |
| CC1(C)c2ccccc2-c2ccc(CC(CC(=O)O)C(=O)C(=O)O)cc21 (racemic) [compound 11] | < 10% | < 10% | 98±2% | 96±2% | < 10% | < 10% | < 10% | potent inhibitor | pIC50 (R132H IDH1 [1]; […] 2OG, 0.03 μM enzyme, 50 μM NADPH): ~2.96; pIC50 (R172K IDH2 [2]; 1.0 mM 2OG, 0.03 μM enzyme, 50 μM NADPH): ~4.08; pIC50 (R140Q IDH2 [3]; 6.0 mM 2OG, 0.03 μM enzyme, 50 μM NADPH): ~2.78 |
| CC(C)(CC(=O)C(=O)O)C(=O)O [compound 13, 4,4-dimethyl-2OG] | 106 ± 6% | 117 ± 6% | 106±4% | 101±7% | 118 ± 20% | < 10% | < 10% | does not inhibit | inhibition of AspH (AspH): efficient inhibitor; substrate efficiency compared with 2OG [14]: less efficient substrate |
